# From US20170209579A1, “NON-INVASIVE RADIOFREQUENCY FIELD TREATMENT FOR CANCER THERAPY” (Baylor College of Medicine, priority 2014, published 2017)
# Columns and labels:
# HepG2 xenograft = experiment: Orthotopic HepG2 xenografts in CB17 SCID mice, tumor mass; assay type: in vivo, mouse
# Description: For in vivo studies, an implanted mouse model of human HCC was generated in CB17SCID mice (Taconic, Hudson, N.Y.). Female mice between 4 and 5 weeks in age were purchased and acclimatized in M.D. Anderson Animal facilities for up to one week. All animals were handled, housed and studied in accordance with the Institutional Animal Care and Use Committee. Tumors were generated after orthotopic implantation of approximately 1.6 million cells into the liver of each mouse (10 mice per group). Bioluminescence imaging indicated tumor development in the majority of mice three weeks after implantation. Euthanasia was performed by carbon dioxide inhalation followed by cervical spine dislocation.
# Cultured luciferase and GFP-expression human HCC cell lines (Hep3B and HepG2) were harvested from an exponentially growing culture and washed with PBS. The cells were re-suspended in 3 ml PBS and final centrifugation was performed at 1000 RPM for 5 minutes. Supernatant was discarded and the cell pellet was used for implantation. The concentration of cells achieved using this protocol was 160,000 cells per micro liter. The cells were kept on ice and animals were injected within 3-4 hours after final centrifugation.
# Before surgery, hair was removed from the ventral surface of the abdomen using clippers. Mice were anesthetized using 2.5% isoflurane. The surgical field was sterilized with 70% (v/v) ethanol in water. Mice were placed supine on a heating pad and the surgical site was sterilized using povidone iodine swab sticks. After confirming induction of anesthesia, an approximately 1-cm transverse incision was made in the skin of the upper abdomen slightly left of the midline. Deeper layers of muscle and peritoneum were incised and hemostasis was achieved using silver nitrate chemical cautery sticks. By applying gentle pressure on the lower abdomen and lower chest, the left lobe of the liver was eviscerated. […]
# Mice with confirmed tumors on bioluminescence were then randomized in groups of 10. […] Sample size was calculated using Stata SE 12.1 for Mac (College Station, Tex.). […]
# Hep3B cells = experiment: Cell cycle analysis (BrdU flow cytometry) in Hep3B cells; assay type: cell-based, human
# Description: For cell cycle analysis a BrdU-labeling protocol from BrdU Flow Kit (BD Pharmingen, San Diego, Calif.) was used according to the supplied instructions. Data was analyzed using FlowJo 7.63 (Tree Star, Inc., Ashland, Oreg.). For cell cycle analysis, a BrdU-labeling protocol was used to identify cells in S-phase of the cell cycle accurately. Cells were harvested from an exponentially growing culture as described for other experiments and seeded in 6-well plates, approximately 150,000 cells per well. After 24-hours adherent sub-confluent monolayers were noted and cells were exposed to various experimental conditions. At the end of the treatments, cells were washed and sampled at various time points to study the progression of the cell cycle in time. One hour before each time point, cells were pulsed with BrdU (10 μM) for 1 hour. BrdU gets incorporated in the DNA of cells in S-phase along with other nucleotides and can be detected using a mouse FITC conjugated anti-BrdU antibody. A BrdU Flow Kit (BD Pharmingen, San Diego, Calif.) was used according to the supplied instructions without modifications. For counterstaining of DNA content, cells were incubated with 7-amino-actinomycin D (7-AAD) supplied with the kit, on ice for 20 minutes before analysis on a BD LSR II flowcytometer (BD biosciences San Jose, Calif.). Single cell populations were identified using forward and side-scatter profiles. A total of 10,000 events were recorded from a gated single cell population. For 7-AAD fluorescence measurements, a SORP YG laser (561 nm) was used to excite the cells and emission was recorded through a 630LP filter followed by a 660/20 filter. For FITC fluorescence measurements, a SORP blue laser (488 nm) was used to excite the cells and emission was recorded through 505LP filter followed by a 525/50 filter. There was no spectral over-lap between the two emission spectra and compensation was not required. Data was analyzed using FlowJo 7.63 (Tree Star, Inc., Ashland, Oreg.). […] Cell cycle progression was analyzed over time (FIGS. 16 and 17). […]
structure (smiles),measurement,setting,value
"Nc1ccn([C@@H]2O[C@H](CO)[C@@H](O)C2(F)F)c(=O)n1 [gemcitabine, 2′,2′-difluoro 2′-deoxycytidine]",Mean tumor mass [±SD],"HepG2 xenograft; RF then gemcitabine, weekly for three weeks",107 ± 64 mg
same,Mean tumor mass [±SD],"HepG2 xenograft; gemcitabine alone, weekly treatments for three weeks",170 ± 51 mg
same,Mean tumor mass [±SD],"HepG2 xenograft; gemcitabine then RF, weekly for three weeks",74 ± 45 mg
same,"cell cycle progression, gemcitabine followed by hyperthermia compared with gemcitabine alone","Hep3B cells; 1 μM 24 hours, last two hours at 42.5° C.",much slower progression through late-S and G2/M phases
same,cell cycle progression,"Hep3B cells; 1 μM gemcitabine, 24-hour incubation",completely halts cell cycle progression
same,cell cycle recovery once gemcitabine is removed,Hep3B cells; after 24 hours 1 μM gemcitabine,cells resume synchronized DNA synthesis in 24 hours
